# Measured values from ChEMBL document CHEMBL2390838, “Structure-based identification of ureas as novel nicotinamide phosphoribosyltransferase (Nampt) inhibitors” (J Med Chem, 2013).
# Assays:
# Assay type in all cases: ADME, organism-based
# [1] = AUC(infinity) in BALB/c mouse at 5 mg/kg, po; parameters: time infinity, dose 5 mg/kg, route oral; conditions: plasma
# [2] = Volume of distribution at steady state in BALB/c mouse at 1 mg/kg, iv; parameters: dose 1 mg/kg, route intravenous; conditions: in vivo, read-out: Vdss
# [3] = Tmax in BALB/c mouse at 1 mg/kg, iv; parameters: dose 1 mg/kg, route intravenous; conditions: in vivo
# [4] = AUC(infinity) in BALB/c mouse at 1 mg/kg, iv; parameters: time infinity, dose 1 mg/kg, route intravenous; conditions: plasma
# [5] = Tmax in BALB/c mouse at 5 mg/kg, po; parameters: dose 5 mg/kg, route oral; conditions: in vivo
# [6] = Cmax in BALB/c mouse at 5 mg/kg, po; parameters: dose 5 mg/kg, route oral; conditions: in vivo
# [7] = Oral bioavailability in BALB/c mouse at 5 mg/kg; conditions: in vivo
# [8] = Cmax in BALB/c mouse at 1 mg/kg, iv; parameters: dose 1 mg/kg, route intravenous; conditions: in vivo
smiles,measurement,setting,value
O=C(NCc1cccnc1)Nc1ccc(S(=O)(=O)N2CC3CCC(C2)O3)cc1,AUC(0-inf),[1],1.4 µM·h
same,Vd,[2],1.1 L/kg
same,Tmax,[3],4.8 min
same,AUC(0-inf),[4],0.92 µM·h
same,Tmax,[5],30 min
same,Cmax,[6],1100 nM
same,bioavailability,[7],26%
same,Cmax,[8],2700 nM
